Laboratory results: patent US20240294522A1 (Lead Discovery Center GmbH, priority 2021, published 2024)

Legend:
[1] = target: T1, GRK5 (Homo sapiens, UniProt P34947); test: Lance Kinase Activity Assay, GRK5; conditions: biochemical Lance kinase activity assay; class symbols A-F; read-out: GRK5 LANCE Assay (IC-50)
T1 construct: purchased Thermo Scientific
Procedure: (§1) This protocol describes how the Lance Kinase Activity Assay was performed to determine IC50 values of compounds of general formula (I) against GRK5 and GRK2.
(§2) The principle behind this enzymatic assay is based upon the phosphorylation of the Ulight-peptide substrate. It is detected by using a specific EU-labeled anti-phospho peptide antibody. The binding of the Eu labeled anti-phospho peptide antibody to the phosphorylated ULight labeled peptide gives rise to a FRET-signal. Binding of an inhibitor to the kinase prevents phosphorylation of the Ulight-substrate, resulting in a loss of FRET. In tables 2 and 3 the relevant information for these two LANCE assays is summarized.
(§3) For every sample, 2 μl of assay buffer (50 mM HEPES pH 7,5, 10 mM MgCL2, 1 mM EGTA 0,01% Tween 20, 1% DMSO, 2 mM DTT) were transferred into a suitable assay plate (e.g. Corning #3673). Compounds were added in a concentration range from 10 μM to 0.0025 μM using an acoustic dispenser (Echo520 from Labcycte, San Jose, USA) equipped with Echo Dose Response software. After that 6 μl of kinase-substrate mix was added. Reaction was started by addition of 2 μl ATP working solution and mixed using a Bioshake 5000 microplate shaker (Q Instruments, Jena, Germany).
(§4) After 1 h incubation at room temperature the reaction was stopped with 10 μl detection mix containing the Eu-labeled phosphospecific antibody and 10 mM EDTA. After a second incubation period of 1 h at room temperature the FRET signal was measured at 340 nm excitation, 665 nm and 615 nm emission (for the ULight-substrate and Eu-AB, respectively) with an Envision microplate reader (Perkin Elmer, Waltham, MA, USA) with 50 μs delay and 300 μs integration time. IC50 values were determined from the sigmoidal dose response curves with the software Quattro Workflow (Quattro GmbH, Munich, Germany).
(§5) Inhibition is indicated as IC50 [nM] (“−”=not measured). Compounds having an activity designated as “A” provided an IC50≤50 nM; compounds having an activity designated as “B” provided an 50 nM<IC50≤100 nM; compounds having an activity designated as “C” provided an 100 nM<IC50≤500 nM; compounds having an activity designated as “D” provided an 500 nM<IC50≤1000 nM; compounds having an activity designated as “E” provided an 1000 nM<IC50≤10000 nM; and compounds having an activity designated as “F” provided an IC50>10000 nM.

[2] = target: T2, GRK2 (Homo sapiens, UniProt P25098); test: Lance Kinase Activity Assay, GRK2; conditions: biochemical Lance kinase activity assay; class symbols A-F; read-out: GRK2 LANCE Assay (IC-50)
T2 construct: purchased Thermo Scientific
T2 sequence (P25098 1-689): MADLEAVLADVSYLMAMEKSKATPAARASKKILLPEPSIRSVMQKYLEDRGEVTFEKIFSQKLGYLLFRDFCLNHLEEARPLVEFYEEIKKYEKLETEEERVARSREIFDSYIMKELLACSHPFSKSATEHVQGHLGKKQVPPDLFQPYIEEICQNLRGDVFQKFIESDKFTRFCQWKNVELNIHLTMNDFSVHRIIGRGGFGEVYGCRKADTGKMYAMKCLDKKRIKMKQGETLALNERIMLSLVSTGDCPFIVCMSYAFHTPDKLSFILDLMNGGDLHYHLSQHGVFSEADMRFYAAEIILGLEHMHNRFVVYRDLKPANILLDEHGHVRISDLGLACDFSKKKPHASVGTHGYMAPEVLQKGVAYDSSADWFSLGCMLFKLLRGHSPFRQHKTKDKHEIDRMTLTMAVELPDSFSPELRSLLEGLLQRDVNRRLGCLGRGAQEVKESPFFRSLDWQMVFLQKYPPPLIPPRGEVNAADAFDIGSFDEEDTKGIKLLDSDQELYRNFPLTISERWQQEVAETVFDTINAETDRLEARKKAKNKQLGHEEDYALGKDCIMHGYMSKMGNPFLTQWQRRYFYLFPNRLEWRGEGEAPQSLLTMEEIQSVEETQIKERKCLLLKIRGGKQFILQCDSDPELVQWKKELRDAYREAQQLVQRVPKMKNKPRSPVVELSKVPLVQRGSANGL
Procedure: as §1, §2, §3, §4, §5

T1 sequence (P34947 whole entry): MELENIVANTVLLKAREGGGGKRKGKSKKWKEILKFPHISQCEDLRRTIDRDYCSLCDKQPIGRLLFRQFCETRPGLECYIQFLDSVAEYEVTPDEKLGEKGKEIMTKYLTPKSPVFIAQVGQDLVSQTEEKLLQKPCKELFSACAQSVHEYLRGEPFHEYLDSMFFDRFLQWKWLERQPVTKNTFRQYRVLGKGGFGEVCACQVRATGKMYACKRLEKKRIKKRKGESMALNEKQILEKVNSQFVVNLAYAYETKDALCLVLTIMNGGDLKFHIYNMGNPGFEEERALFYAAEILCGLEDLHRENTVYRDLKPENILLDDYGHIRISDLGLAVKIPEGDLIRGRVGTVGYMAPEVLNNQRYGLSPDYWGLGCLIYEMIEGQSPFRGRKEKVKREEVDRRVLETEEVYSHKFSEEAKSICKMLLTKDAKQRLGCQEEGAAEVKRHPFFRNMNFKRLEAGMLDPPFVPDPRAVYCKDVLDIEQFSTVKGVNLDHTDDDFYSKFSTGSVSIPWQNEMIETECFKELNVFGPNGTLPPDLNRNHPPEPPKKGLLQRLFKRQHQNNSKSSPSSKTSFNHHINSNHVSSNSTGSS

Row | SMILES | IC50 [1] [nM] | IC50 [2] [nM]
1 | C[C@@H](NC(=O)/C(C#N)=C/c1c[nH]c2ncccc12)c1ccc(Cl)c(Cl)c1 [Example 20, (R,E)-2-cyano-N-(1-(3,4-dichlorophenyl)ethyl)-3-(1H-pyrrolo[2,3-b]pyridin-3-yl)acrylamide] | 100 to 500 | 100 to 500
2 | COc1cc([C@@H](C)NC(=O)/C=C/c2c[nH]c3ncc(C)cc23)ccc1F [Example 54, (R,E)-N-(1-(4-fluoro-3-methoxyphenyl)ethyl)-3-(5-methyl-1H-pyrrolo[2,3-b]pyridin-3-yl)acrylamide] | ≤ 50 | ≤ 50
3 | O=C(/C=C/c1c[nH]c2ncc(Cl)cc12)NCc1cccc(F)c1 [Example 7, (E)-3-(5-chloro-1H-pyrrolo[2,3-b]pyridin-3-yl)-N-(3-fluorobenzyl)acrylamide] | 100 to 500 | 1000 to 10000
4 | N#C/C(=C\c1c[nH]c2ncccc12)C(=O)NCc1ccccc1Cl [Example 62, (E)-N-(2-chlorobenzyl)-2-cyano-3-(1H-pyrrolo[2,3-b]pyridin-3-yl)acrylamide] | 100 to 500 | 1000 to 10000
5 | N#C/C(=C\c1c[nH]c2ncc(Cl)cc12)C(=O)NCc1ccc(F)cc1 [Example 72, (E)-3-(5-chloro-1H-pyrrolo[2,3-b]pyridin-3-yl)-2-cyano-N-(4-fluorobenzyl)acrylamide] | 1000 to 10000 | 1000 to 10000
6 | COc1ccc([C@@H](C)NC(=O)/C(C#N)=C/c2c[nH]c3nc(Br)ccc23)cc1OC [Example 90, (R,E)-3-(6-bromo-1H-pyrrolo[2,3-b]pyridin-3-yl)-2-cyano-N-(1-(3,4-dimethoxyphenyl)ethyl)acrylamide] | 100 to 500 | > 10000
7 | CNS(=O)(=O)c1ccccc1CNC(=O)/C(C#N)=C/c1c[nH]c2ncccc12 [Example 43, (E)-2-cyano-N-(2-(N-methylsulfamoyl)benzyl)-3-(1H-pyrrolo[2,3-b]pyridin-3-yl)acrylamide] | 100 to 500 | 1000 to 10000
8 | CC(=O)Nc1cccc(CNC(=O)/C(C#N)=C/c2c[nH]c3ncccc23)c1 [Example 34, (E)-N-(3-acetamidobenzyl)-2-cyano-3-(1H-pyrrolo[2,3-b]pyridin-3-yl)acrylamide] | 100 to 500 | ≤ 50
9 | COc1ccc(C(CCN(C)C)NC(=O)/C(C#N)=C/c2c[nH]c3ncccc23)cc1 (stereo not drawn) [Example 51, (E)-2-cyano-N-(3-(dimethylamino)-1-(4-methoxyphenyl)propyl)-3-(1H-pyrrolo[2,3-b]pyridin-3-yl)acrylamide] | ≤ 50 | 500 to 1000
10 | COc1ccc([C@@H](C)NC(=O)/C(C#N)=C/c2c[nH]c3ncccc23)cc1 [Example 19, (R,E)-2-cyano-N-(1-(4-methoxyphenyl)ethyl)-3-(1H-pyrrolo[2,3-b]pyridin-3-yl)acrylamide] | 100 to 500 | 1000 to 10000
11 | COc1ccc([C@@H](C)NC(=O)/C(C#N)=C/c2c[nH]c3ncc(O)cc23)cc1OC [Example 81, (R,E)-2-cyano-N-(1-(3,4-dimethoxyphenyl)ethyl)-3-(5-hydroxy-1H-pyrrolo[2,3-b]pyridin-3-yl)acrylamide] | ≤ 50 | 1000 to 10000

Other lines, results leading:

Row | IC50 [1] [nM] | IC50 [2] [nM] | SMILES
12 | ≤ 50 | 1000 to 10000 | COc1ccc([C@@H](C)NC(=O)/C(C#N)=C/c2c[nH]c3ncc(-c4ccncc4)cc23)cc1OC [Example 143]
13 | ≤ 50 | 1000 to 10000 | COc1ccc([C@@H](C)NC(=O)/C(C#N)=C/c2c[nH]c3ncc(-c4ccc(CCN(C)C)cc4)cc23)cc1OC [Example 134]
14 | ≤ 50 | > 10000 | COc1ccc([C@@H](C)NC(=O)/C=C/c2c[nH]c3ncc(-c4cccc(S(=O)(=O)C(F)(F)F)c4)cc23)cc1OC [Example 264, (R,E)-N-(1-(3,4-dimethoxyphenyl)ethyl)-3-(5-(3-((trifluoromethyl)sulfonyl)phenyl)-1H-pyrrolo[2,3-b]pyridin-3-yl)acrylamide]
15 | 50 to 100 | 1000 to 10000 | C[C@@H](NC(=O)/C(C#N)=C/c1c[nH]c2ncc(-c3cnn(C)c3)cc12)c1ccc(Cl)cc1 [Example 95, (R,E)-N-(1-(4-chlorophenyl)ethyl)-2-cyano-3-(5-(1-methyl-1H-pyrazol-4-yl)-1H-pyrrolo[2,3-b]pyridin-3-yl)acrylamide]
16 | 1000 to 10000 | > 10000 | COc1ccc([C@@H](C)NC(=O)/C=C/c2c[nH]c3nccc(-c4ccc(F)cc4OC)c23)cc1OC [Example 229, (R,E)-N-(1-(3,4-dimethoxyphenyl)ethyl)-3-(4-(4-fluoro-2-methoxyphenyl)-1H-pyrrolo[2,3-b]pyridin-3-yl)acrylamide]
17 | ≤ 50 | 1000 to 10000 | CC[S+]([O-])c1cccc(-c2cnc3[nH]cc(/C=C/C(=O)N[C@H](C)c4ccc(OC)c(OC)c4)c3c2)c1 (stereo partly drawn) [Example 191, (E)-N-((R)-1-(3,4-dimethoxyphenyl)ethyl)-3-(5-(3-(ethylsulfinyl)phenyl)-1H-pyrrolo[2,3-b]pyridin-3-yl)acrylamide]
18 | ≤ 50 | 1000 to 10000 | COc1ccc([C@@H](C)NC(=O)/C=C/c2c[nH]c3ncc(-c4cccc(CN(C)C)c4)cc23)cc1OC [Example 190]
19 | ≤ 50 | > 10000 | COc1ccc([C@@H](C)NC(=O)/C=C/c2c[nH]c3ncc(-c4cccc(-c5ncc[nH]5)c4)cc23)cc1OC [Example 199, (R,E)-3-(5-(3-(1H-imidazol-2-yl)phenyl)-1H-pyrrolo[2,3-b]pyridin-3-yl)-N-(1-(3,4-dimethoxyphenyl)ethyl)acrylamide]
20 | ≤ 50 | > 10000 | COc1ccc([C@@H](C)NC(=O)/C(C#N)=C/c2c[nH]c3ncc(-c4cccc(C(=O)N5CCOCC5)c4)cc23)cc1OC [Example 127, (R,E)-2-cyano-N-(1-(3,4-dimethoxyphenyl)ethyl)-3-(5-(3-(morpholine-4-carbonyl)phenyl)-1H-pyrrolo[2,3-b]pyridin-3-yl)acrylamide]
21 | 100 to 500 | > 10000 | COc1ccc([C@@H](C)NC(=O)/C=C/c2c[nH]c3ncc(-c4ccc(F)cc4OC)cc23)cc1OC [Example 201, (R,E)-N-(1-(3,4-dimethoxyphenyl)ethyl)-3-(5-(4-fluoro-2-methoxyphenyl)-1H-pyrrolo[2,3-b]pyridin-3-yl)acrylamide]
22 | 50 to 100 | > 10000 | COc1ccc([C@@H](C)NC(=O)/C=C/c2c[nH]c3nccc(-c4ccc(N5CCN(C(C)=O)CC5)cc4)c23)cc1OC [Example 235, (R,E)-3-(4-(4-(4-acetylpiperazin-1-yl)phenyl)-1H-pyrrolo[2,3-b]pyridin-3-yl)-N-(1-(3,4-dimethoxyphenyl)ethyl)acrylamide]
23 | 50 to 100 | > 10000 | COc1cc(C(C)NC(=O)/C=C/c2c[nH]c3ncc(-c4cnn(C)c4)cc23)cnc1OC (stereo not drawn) [Example 265, (E)-N-(1-(5,6-dimethoxypyridin-3-yl)ethyl)-3-(5-(1-methyl-1H-pyrazol-4-yl)-1H-pyrrolo[2,3-b]pyridin-3-yl)acrylamide]
24 | ≤ 50 | 1000 to 10000 | COc1ccc([C@@H](C)NC(=O)/C(C#N)=C/c2c[nH]c3ncc(OC4CCS(=O)(=O)CC4)cc23)cc1OC [Example 105, (R,E)-2-cyano-N-(1-(3,4-dimethoxyphenyl)ethyl)-3-(5-((1,1-dioxidotetrahydro-2H-thiopyran-4-yl)oxy)-1H-pyrrolo[2,3-b]pyridin-3-yl)acrylamide]
